# Measurements: patent publication US9163256B2, “Mutant receptors and their use in a nuclear receptor-based inducible gene expression system” (priority 2004, dated 2015)
# pEC50: −log10 of the molar value.
# How the values were obtained:
# CfEcR-DEF mutant F109L = CfEcR-DEF mutant F109L (Choristoneura fumiferana, UniProt O77255, F392L); experiment: cell-based; settings: mutant F109L; for pEC50: read-out: EC50
# Procedure: (§1) This construct was prepared in the same way as in switch 1.1 above except wild-type CfEcR-DEF was replaced with mutant CfEcR-DEF comprising a ligand binding domain comprising a substitution mutation selected from Table 1 below.
# (§2) DNAs were transfected into mouse NIH3T3 cells (ATCC) as follows. Standard methods for culture and maintenance of the cells were followed. Cells were harvested and plated 96-well plates at 2,500 cells per well, in 50 μL of growth medium containing 10% fetal bovine serum (FBS). Twenty-four hours later, the cells were treated with 35 μL of serum-free growth medium containing either dimethylsulfoxide (DMSO; control) or a DMSO solution of ligand. The cells were then transfected using Superfect (Qiagen Inc.) transfection reagent. For each well, 0.625 μL of Superfect was mixed with 14.2 μL of serum-free growth medium. 0.16 μg of reporter construct and 0.04 μg of each receptor construct were added to the transfection reagent mix. The contents of the transfection mix were mixed in a vortex mixer and let stand at room temperature for 30 minutes. At the end of incubation, 15 μL of transfection mix was added to the cells. The cells were maintained at 37° C. and 5% CO2 for 48 hours in 5% FBS.
# (§3) Reporter Assays: Cells were harvested 40 hours after adding ligands. 125 μL of passive lysis buffer (part of Dual-Luciferase reporter assay system from Promega Corporation) were added to each well of the […] plate. The plates were placed on a rotary shaker for 15 minutes. Twenty μL of lysate were assayed. Luciferase activity was measured using Dual-Luciferase reporter assay system from Promega Corporation following the manufacturer's instructions. Fold induction (FI) activities were calculated by dividing relative light units (“RLU”) in ligand treated cells with RLU in DMSO treated cells (untreated control).
# CfEcR-DEF mutant I51L = CfEcR-DEF mutant I51L (Choristoneura fumiferana, UniProt O77255, I334L); experiment: cell-based; settings: mutant I51L; for pEC50: read-out: EC50
# Procedure: as §1, §2, §3
# CfEcR-DEF mutant L234I = CfEcR-DEF mutant L234I (Choristoneura fumiferana, UniProt O77255, L517I); experiment: cell-based; settings: mutant L234I; for pEC50: read-out: EC50
# Procedure: as §1, §2, §3
# CfEcR-DEF mutant M125E = CfEcR-DEF mutant M125E (Choristoneura fumiferana, UniProt O77255, M408E); experiment: cell-based; settings: mutant M125E; for pEC50: read-out: EC50
# Chain of CfEcR-DEF mutant M125E (O77255 entry or part of it M408E): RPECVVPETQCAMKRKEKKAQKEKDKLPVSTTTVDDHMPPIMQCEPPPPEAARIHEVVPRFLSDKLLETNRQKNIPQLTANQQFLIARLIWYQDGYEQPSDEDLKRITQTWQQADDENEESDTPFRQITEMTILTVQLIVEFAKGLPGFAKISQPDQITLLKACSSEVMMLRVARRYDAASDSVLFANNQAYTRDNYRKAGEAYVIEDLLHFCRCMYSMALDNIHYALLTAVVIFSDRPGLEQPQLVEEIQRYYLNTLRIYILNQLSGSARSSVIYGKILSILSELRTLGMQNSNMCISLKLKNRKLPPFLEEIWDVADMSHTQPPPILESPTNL
# Chain of CfEcR-DEF mutant M125E (P28702 299-449, further chain): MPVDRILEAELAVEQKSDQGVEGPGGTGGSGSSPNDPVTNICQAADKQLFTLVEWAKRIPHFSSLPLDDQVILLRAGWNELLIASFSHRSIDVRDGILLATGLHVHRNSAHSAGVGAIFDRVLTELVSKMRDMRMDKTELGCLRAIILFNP
# Procedure: as §1, §2, §3
# CfEcR-DEF mutant M125L = CfEcR-DEF mutant M125L (Choristoneura fumiferana, UniProt O77255, M408L); experiment: cell-based; settings: mutant M125L; for pEC50: read-out: EC50
# Chain of CfEcR-DEF mutant M125L (P28702 299-449): as the sequence (P28702 299-449, further chain) above
# Chain of CfEcR-DEF mutant M125L (O77255 entry or part of it M408L): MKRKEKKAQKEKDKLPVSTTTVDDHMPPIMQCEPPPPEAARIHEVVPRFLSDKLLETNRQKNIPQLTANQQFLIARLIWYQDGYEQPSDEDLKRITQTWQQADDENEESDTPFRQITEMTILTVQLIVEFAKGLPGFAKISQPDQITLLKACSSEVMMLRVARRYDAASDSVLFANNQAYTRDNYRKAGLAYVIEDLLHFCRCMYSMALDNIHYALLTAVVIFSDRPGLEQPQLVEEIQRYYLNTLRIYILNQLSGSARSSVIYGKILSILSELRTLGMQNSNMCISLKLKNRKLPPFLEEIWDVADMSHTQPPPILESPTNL
# Procedure: as §1, §2, §3
# CfEcR-DEF mutant M125R = CfEcR-DEF mutant M125R (Choristoneura fumiferana, UniProt O77255, M408R); experiment: cell-based; settings: mutant M125R; for pEC50: read-out: EC50
# Chain of CfEcR-DEF mutant M125R (P28702 299-449): as the sequence (P28702 299-449, further chain) above
# Chain of CfEcR-DEF mutant M125R (O77255 entry or part of it M408R): as the sequence (O77255 entry or part of it M408L) above, with L190R counted along it
# Procedure: as §1, §2, §3
# CfEcR-DEF mutant M54T = CfEcR-DEF mutant M54T (Choristoneura fumiferana, UniProt O77255, M337T); experiment: cell-based; settings: mutant M54T; for pEC50: read-out: EC50; for Rel Max FI: relative to max fold induction of GS-E ligand
# Procedure: as §1, §2, §3
# CfEcR-DEF mutant M92E = CfEcR-DEF mutant M92E (Choristoneura fumiferana, UniProt O77255, M375E); experiment: cell-based; settings: mutant M92E; for pEC50: read-out: EC50
# Chain of CfEcR-DEF mutant M92E (P28702 299-449): as the sequence (P28702 299-449, further chain) above
# Chain of CfEcR-DEF mutant M92E (O77255 entry or part of it M375E): as the sequence (O77255 entry or part of it M408E) above, with M169E, E202M counted along it
# Procedure: as §1, §2, §3
# CfEcR-DEF mutant M92L = CfEcR-DEF mutant M92L (Choristoneura fumiferana, UniProt O77255, M375L); experiment: cell-based; settings: mutant M92L; for pEC50: read-out: EC50
# Procedure: as §1, §2, §3
# CfEcR-DEF mutant R95H = CfEcR-DEF mutant R95H (Choristoneura fumiferana, UniProt O77255, R378H); experiment: cell-based; settings: mutant R95H; for pEC50: read-out: EC50
# Procedure: as §1, §2, §3
# CfEcR-DEF mutant R95M = CfEcR-DEF mutant R95M (Choristoneura fumiferana, UniProt O77255, R378M); experiment: cell-based; settings: mutant R95M; for pEC50: read-out: EC50
# Chain of CfEcR-DEF mutant R95M (P28702 299-449): as the sequence (P28702 299-449, further chain) above
# Chain of CfEcR-DEF mutant R95M (O77255 entry or part of it R378M): as the sequence (O77255 entry or part of it M408L) above, with R160M, L190M counted along it
# Procedure: as §1, §2, §3
# CfEcR-DEF mutant T52E = CfEcR-DEF mutant T52E (Choristoneura fumiferana, UniProt O77255, T335E); experiment: cell-based; settings: mutant T52E; for pEC50: read-out: EC50
# Chain of CfEcR-DEF mutant T52E (O77255 entry or part of it T335E): as the sequence (O77255 entry or part of it M408L) above, with T117E, L190M counted along it
# Chain of CfEcR-DEF mutant T52E (P28702 299-449, further chain): as the sequence (P28702 299-449, further chain) above
# Procedure: as §1, §2, §3
# CfEcR-DEF mutant T52L = CfEcR-DEF mutant T52L (Choristoneura fumiferana, UniProt O77255, T335L); experiment: cell-based; settings: mutant T52L; for pEC50: read-out: EC50; for Rel Max FI: relative to max fold induction of GS-E ligand
# Chain of CfEcR-DEF mutant T52L (P28702 298-449): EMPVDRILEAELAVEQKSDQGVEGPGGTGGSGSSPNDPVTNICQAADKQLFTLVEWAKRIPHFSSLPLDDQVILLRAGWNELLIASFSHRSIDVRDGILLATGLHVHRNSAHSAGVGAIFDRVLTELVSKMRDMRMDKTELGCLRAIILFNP
# Chain of CfEcR-DEF mutant T52L (O77255 entry or part of it T335L): as the sequence (O77255 entry or part of it M408E) above, with T129L, E202M counted along it
# Procedure: as §1, §2, §3
# [1] = target: CfEcR-DEF mutant V107I/Y127E/A110P (Choristoneura fumiferana, UniProt O77255, A393P/V390I/Y410E); experiment: cell-based; settings: mutant V107I/Y127E/A110P; for pEC50: read-out: EC50; for Rel Max FI: relative to max fold induction of GS-E ligand
# Procedure: as §1, §2, §3
# [2] = target: CfEcR-DEF mutant V128F/A110P (Choristoneura fumiferana, UniProt O77255, A393P/V411F); experiment: cell-based; settings: mutant V128F/A110P; for pEC50: read-out: EC50
# Procedure: as §1, §2, §3
# CfEcR-DEF mutant V96L = CfEcR-DEF mutant V96L (Choristoneura fumiferana, UniProt O77255, V379L); experiment: cell-based; settings: mutant V96L; for pEC50: read-out: EC50
# Procedure: as §1, §2, §3
# CfEcR-DEF mutant V96S = CfEcR-DEF mutant V96S (Choristoneura fumiferana, UniProt O77255, V379S); experiment: cell-based; settings: mutant V96S; for pEC50: read-out: EC50; for Rel Max FI: relative to max fold induction of GS-E ligand
# Procedure: as §1, §2, §3
# CfEcR-DEF mutant W238Y = CfEcR-DEF mutant W238Y (Choristoneura fumiferana, UniProt O77255, W521Y); experiment: cell-based; settings: mutant W238Y; for pEC50: read-out: EC50
# Chain of CfEcR-DEF mutant W238Y (P28702 299-449): as the sequence (P28702 299-449, further chain) above
# Chain of CfEcR-DEF mutant W238Y (O77255 entry or part of it W521Y): as the sequence (O77255 entry or part of it M408L) above, with L190M, W303Y counted along it
# Procedure: as §1, §2, §3
# [3] = target: CfEcR-DEF mutant V107I/Y127E/G (Choristoneura fumiferana, UniProt O77255, INS541G/V390I/Y410E); experiment: GAL4-driven luciferase reporter assay in NIH3T3 cells; assay type: cell-based; settings: mutant V107I/Y127E/G; for pEC50: read-out: EC50; for Rel Max FI: relative to max fold induction of GS-E ligand
# Procedure: as §1
# The Gal-4-CfEcR-DEF(VYG) mutant was created by inserting an extra glycine at the C-terminal end of EcR substitution mutant V107I/Y127E [CfECR(VY)] by PCR. Essentially, this was done in two steps: PCR-amplification of CfEcR-DEF(VYG) and substitution of the CfEcR(VY) in the vector GAL4-CfEcR DEF(VY) pBIND 1-9 with the PCR-amplified CfEcR-DEF(VYG). The CfEcR-DEF region (with the extra glycine) was amplified by using the vector GAL4-CfEcR DEF(VY) pBIND 1-9 as template and the following PCR primers: […]
# as §2, §3
# [4] = relative to max fold induction of GS-E ligand
# Chain of CfEcR-DEF mutant F109L (P28702 299-449): as the sequence (P28702 299-449, further chain) above
# Chain of CfEcR-DEF mutant F109L (O77255 entry or part of it F392L): as the sequence (O77255 entry or part of it M408E) above, with F186L, E202M counted along it
SMILES,Rel Max FI (CfEcR-DEF mutant F109L),pEC50 (CfEcR-DEF mutant F109L),Rel Max FI (CfEcR-DEF mutant I51L),pEC50 (CfEcR-DEF mutant I51L),Rel Max FI (CfEcR-DEF mutant L234I),pEC50 (CfEcR-DEF mutant L234I),Rel Max FI (CfEcR-DEF mutant M125E),pEC50 (CfEcR-DEF mutant M125E),Rel Max FI (CfEcR-DEF mutant M125L),pEC50 (CfEcR-DEF mutant M125L),Rel Max FI (CfEcR-DEF mutant M125R),pEC50 (CfEcR-DEF mutant M125R),pEC50 (CfEcR-DEF mutant M54T),Rel Max FI (CfEcR-DEF mutant M54T),Rel Max FI (CfEcR-DEF mutant M92E),pEC50 (CfEcR-DEF mutant M92E),Rel Max FI (CfEcR-DEF mutant M92L),pEC50 (CfEcR-DEF mutant M92L),Rel Max FI (CfEcR-DEF mutant R95H),pEC50 (CfEcR-DEF mutant R95H),other results
"CC(C)(O)CC[C@@H](O)[C@](C)(O)[C@H]1CC[C@@]2(O)C3=CC(=O)[C@@H]4C[C@@H](O)[C@@H](O)C[C@]4(C)[C@H]3CC[C@]12C [20E, 20-hydroxyecdysone]",0.09,< 4.48,0,< 4.48,0,< 4.48,0,< 4.48,0,< 4.48,0.01,< 4.48,< 4.48,0,0,< 4.48,0,< 4.48,0,< 4.48,"Rel Max FI (CfEcR-DEF mutant R95M): 0; pEC50 (CfEcR-DEF mutant R95M): < 4.48; Rel Max FI (CfEcR-DEF mutant T52E): 0; pEC50 (CfEcR-DEF mutant T52E): < 4.48; pEC50 (CfEcR-DEF mutant T52L): < 4.48; Rel Max FI (CfEcR-DEF mutant T52L): 0; pEC50 [1]: < 4.48; Rel Max FI [1]: 0.00; Rel Max FI [2]: 0; pEC50 [2]: < 4.48; Rel Max FI [2, 4]: 0.00; Rel Max FI (CfEcR-DEF mutant V96L): 0; pEC50 (CfEcR-DEF mutant V96L): < 4.48; pEC50 (CfEcR-DEF mutant V96S): < 4.48; Rel Max FI (CfEcR-DEF mutant V96S): 0.02; Rel Max FI (CfEcR-DEF mutant W238Y): 0.18; pEC50 (CfEcR-DEF mutant W238Y): < 4.48; pEC50 [3]: < 4.48; Rel Max FI [3]: 0.03"
"CC(C)CC[C@@H](O)[C@](C)(O)[C@H]1CC[C@@]2(O)C3=CC(=O)[C@@H]4C[C@@H](O)[C@@H](O)C[C@]4(C)[C@H]3CC[C@]12C [PonA, ponasterone A]",0.03,< 4.48,0.66,~5.10,0.56,~5.15,0,< 4.48,0,< 4.48,0,~5.10,5.02,0.5,0.01,< 4.48,0,< 4.48,0.03,< 4.48,"Rel Max FI (CfEcR-DEF mutant R95M): 0; pEC50 (CfEcR-DEF mutant R95M): < 4.48; Rel Max FI (CfEcR-DEF mutant T52E): 0; pEC50 (CfEcR-DEF mutant T52E): < 4.48; pEC50 (CfEcR-DEF mutant T52L): 5.30; Rel Max FI (CfEcR-DEF mutant T52L): 0.54; pEC50 [1]: < 4.48; Rel Max FI [1]: 0.01; Rel Max FI [2]: 0; pEC50 [2]: < 4.48; Rel Max FI [2, 4]: 0.00; Rel Max FI (CfEcR-DEF mutant V96L): 0.49; pEC50 (CfEcR-DEF mutant V96L): 5.13; pEC50 (CfEcR-DEF mutant V96S): ~5.70; Rel Max FI (CfEcR-DEF mutant V96S): 0.92; Rel Max FI (CfEcR-DEF mutant W238Y): 0.07; pEC50 (CfEcR-DEF mutant W238Y): < 4.48; pEC50 [3]: 5.78; Rel Max FI [3]: 0.67"
